This passage reports T/C results from PubChem BioAssay AID328 (DTP/NCI, 2004).

For the assay, the system named is BDF1 mice, P388 leukemia ip, median survival T/C. Briefly: NCI In Vivo Anticancer Drug Screen. Data for tumor model P388 Leukemia (intraperitoneal) in B6D2F1 (BDF1) mice. As to conditions: endpoint: median survival time, higher = longer survival. The gist of the method: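 In tumour-bearing mice, survival after compound treatment is set against the vehicle group and given as a quotient.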

[1] abbreviates: dose: 6.25 mg/kg/injection, schedule: Q01DX009 (ip), vehicle: saline.
The mark [2] stands for this setting: dose: 50.0 mg/kg/injection, schedule: Q01DX009 (ip), vehicle: saline with Tween-80.
Setting [3] is: dose: 100.0 mg/kg/injection, schedule: Q01DX009 (ip), vehicle: saline with Tween-80.
[4] abbreviates: dose: 3.13 mg/kg/injection, schedule: Q01DX009 (ip), vehicle: saline with Tween-80.
Setting [5] is: dose: 12.5 mg/kg/injection, schedule: Q01DX009 (ip), vehicle: saline with Tween-80.
[6] abbreviates: dose: 100.0 mg/kg/injection, schedule: Q04DX003 (ip), vehicle: saline.
The mark [7] stands for this setting: dose: 100.0 mg/kg/injection, schedule: Q01DX001 (ip), vehicle: saline with Tween-80.
The mark [8] stands for this setting: dose: 200.0 mg/kg/injection, schedule: Q01DX001 (ip), vehicle: saline with Tween-80.

SMILES strings stand for the structures. “And” between values parts separate entries of the source, which are not always exact repeats. Equal entries are not always repeated. Inconclusive results and toxic doses are left out.

Take `Cn1/c2cc/c1=C(\c1ccc(S(=O)(=O)O)cc1)c1ccc([n-]1)/C(c1ccc(S(=O)(=O)O)cc1)=c1/cc/c([nH]1)=C(\c1ccc(S(=O)(=O)O)cc1)c1ccc([n-]1)/C=2c1ccc(S(=O)(=O)O)cc1.O.O=S(=O)(O)C(F)(F)F.[Cu+2]`: the T/C reads like this: under setting [1], 101 % of control; (dose: 50.0 mg/kg/injection, schedule: Q01DX009 (ip), vehicle: saline) 101 % of control.

Regarding `NC(N)=Nc1ccc(F)cc1`, the T/C is, setting by setting: under setting [2], 110 % of control; under setting [3], 95 % of control; (dose: 200.0 mg/kg/injection, schedule: Q01DX009 (ip), vehicle: saline with Tween-80) 90 % of control.

With `O=S(=O)([O-])[O-].OCCNCCNCC[OH2+].OCCNCCNCC[OH2+].[Cu+2]`, the T/C was 94 % of control under setting [1]; 100 % of control (dose: 12.5 mg/kg/injection, schedule: Q01DX009 (ip), vehicle: saline); 94 % of control (dose: 25.0 mg/kg/injection, schedule: Q01DX009 (ip), vehicle: saline).

Consider `O=[N+]([O-])c1ccc(N=Nc2c(Cl)cc(O)cc2Cl)cc1`, for which the T/C is, setting by setting: under setting [4], 95 % of control; (dose: 6.25 mg/kg/injection, schedule: Q01DX009 (ip), vehicle: Klucel (hydroxypropylcellulose) (HPC)) 115 % of control; (dose: 6.25 mg/kg/injection, schedule: Q01DX009 (ip), vehicle: saline with Tween-80) 95 % of control; (dose: 12.5 mg/kg/injection, schedule: Q01DX009 (ip), vehicle: Klucel (hydroxypropylcellulose) (HPC)) 110 % of control; under setting [5], 95 % of control; (dose: 25.0 mg/kg/injection, schedule: Q01DX009 (ip), vehicle: Klucel (hydroxypropylcellulose) (HPC)) 115 % of control. In addition, the T/C by setting is: (dose: 35.0 mg/kg/injection, schedule: Q01DX009 (ip), vehicle: Klucel (hydroxypropylcellulose) (HPC)) 94 % of control; (dose: 50.0 mg/kg/injection, schedule: Q01DX009 (ip), vehicle: Klucel (hydroxypropylcellulose) (HPC)) 97 % of control; (dose: 75.0 mg/kg/injection, schedule: Q01DX009 (ip), vehicle: Klucel (hydroxypropylcellulose) (HPC)) 118 % of control; under setting [3], 120 % of control; (dose: 100.0 mg/kg/injection, schedule: Q04DX003 (ip), vehicle: saline sonified) 100 % of control; (dose: 200.0 mg/kg/injection, schedule: Q04DX003 (ip), vehicle: saline sonified) 100 % of control. For the same compound, where the note is “dose: 400.0 mg/kg/injection, schedule: Q04DX003 (ip), vehicle: saline sonified”, the T/C was 100 % of control.

As for `O=C1C=CC(=O)c2cc(Cl)c(Cl)cc21`, the T/C was 118 % of control under setting [4] and 86 % of control under setting [5].

Turning to `CCCCCCCCCCOP(N)(=O)OCCCCCCCCCC`, the T/C (dose: 25.0 mg/kg/injection, schedule: Q04DX003 (ip), vehicle: saline) was 115 % of control; the T/C under setting [2] was 90 % of control; the T/C (dose: 50.0 mg/kg/injection, schedule: Q04DX003 (ip), vehicle: saline) was 110 % of control; the T/C under setting [3] is 86 % of control; the T/C (dose: 100.0 mg/kg/injection, schedule: Q04DX003 (ip), vehicle: saline with Tween-80) was 95 % of control; the T/C under setting [6] was 110 % of control. For the same compound, the T/C is 110 % of control (dose: 150.0 mg/kg/injection, schedule: Q04DX003 (ip), vehicle: saline); 95 % of control (dose: 200.0 mg/kg/injection, schedule: Q04DX003 (ip), vehicle: saline with Tween-80); 105 % of control (dose: 225.0 mg/kg/injection, schedule: Q04DX003 (ip), vehicle: saline).

As for `O=C(c1ccccc1)C(c1ccccc1)C(O)(C(F)(F)F)C(F)(F)F` (configuration not stated), the T/C is, setting by setting: under setting [7], 100 % of control; under setting [8], 95 % of control.

On to `O=[N+]([O-])c1ccc(Nc2ccncc2)cc1`, for which the T/C is, setting by setting: under setting [6], 104 % of control; (dose: 200.0 mg/kg/injection, schedule: Q04DX003 (ip), vehicle: saline) 95 % of control; (dose: 400.0 mg/kg/injection, schedule: Q04DX003 (ip), vehicle: saline) 104 % of control.

As for `COc1cc([C@@H]2c3cc4c(cc3[C@H](O)[C@H]3COC(=O)[C@@H]23)OCO4)cc(OC)c1OC`, the T/C runs as follows: (dose: 7.7 mg/kg/injection, schedule: Q01DX010 (ip), vehicle: carboxymethylcellulose (CMC)) 115 % of control; (dose: 12.0 mg/kg/injection, schedule: Q01DX009 (ip), vehicle: Klucel (hydroxypropylcellulose) (HPC)) 166 % of control; (dose: 18.0 mg/kg/injection, schedule: Q01DX009 (ip), vehicle: Klucel (hydroxypropylcellulose) (HPC)) 185 % of control; (dose: 27.0 mg/kg/injection, schedule: Q01DX009 (ip), vehicle: Klucel (hydroxypropylcellulose) (HPC)) 195 % of control; (dose: 30.8 mg/kg/injection, schedule: Q01DX010 (ip), vehicle: carboxymethylcellulose (CMC)) 210 % of control; (dose: 37.5 mg/kg/injection, schedule: Q04DX003 (ip), vehicle: saline sonified) 113 % of control. Besides, the T/C is, setting by setting: (dose: 40.0 mg/kg/injection, schedule: Q01DX009 (ip), vehicle: Klucel (hydroxypropylcellulose) (HPC)) 233 % of control; (dose: 60.0 mg/kg/injection, schedule: Q01DX009 (ip), vehicle: Klucel (hydroxypropylcellulose) (HPC)) 252 % of control; (dose: 75.0 mg/kg/injection, schedule: Q04DX003 (ip), vehicle: saline sonified) 122 % of control; (dose: 150.0 mg/kg/injection, schedule: Q04DX003 (ip), vehicle: saline sonified) 180 % of control and 204 % of control; (dose: 225.0 mg/kg/injection, schedule: Q04DX003 (ip), vehicle: saline sonified) 300 % of control.

On to `CCN(CC)CCNc1ccc(CO)c2sc3ccc(O)cc3c(=O)c12`, for which the T/C runs as follows: (dose: 9.88 mg/kg/injection, schedule: Q04DX002 (ip), vehicle: saline with Tween-80) 163 % of control; (dose: 18.75 mg/kg/injection, schedule: Q04DX002 (ip), vehicle: saline with Tween-80) 207 % of control; (dose: 37.5 mg/kg/injection, schedule: Q04DX002 (ip), vehicle: saline with Tween-80) 179 % of control; (dose: 75.0 mg/kg/injection, schedule: Q04DX002 (ip), vehicle: saline with Tween-80) 207 % of control.

On to `CC(=O)CC(c1ccc2c(c1)OCO2)c1c(O)c2ccccc2oc1=O` (configuration not stated), for which the T/C (dose: 0.39 mg/kg/injection, schedule: Q01DX009 (ip), vehicle: saline) was 88 % of control; the T/C (dose: 0.78 mg/kg/injection, schedule: Q01DX009 (ip), vehicle: saline) is 106 % of control; the T/C (dose: 0.78 mg/kg/injection, schedule: Q04DX003 (ip), vehicle: saline) is 89 % of control; the T/C (dose: 1.56 mg/kg/injection, schedule: Q01DX009 (ip), vehicle: saline) was 106 % of control; the T/C (dose: 1.56 mg/kg/injection, schedule: Q04DX003 (ip), vehicle: saline) is 98 % of control; the T/C (dose: 3.12 mg/kg/injection, schedule: Q04DX003 (ip), vehicle: saline) is 89 % of control. Also, the T/C is, setting by setting: (dose: 6.25 mg/kg/injection, schedule: Q04DX003 (ip), vehicle: saline) 89 % of control; (dose: 12.5 mg/kg/injection, schedule: Q04DX003 (ip), vehicle: saline) 102 % of control.

For the compound `NC12CC3CC(CC(C3)C1)C2`, the T/C is, setting by setting: (dose: 25.0 mg/kg/injection, schedule: Q01DX010 (ip), vehicle: saline) 100 % of control; (dose: 50.0 mg/kg/injection, schedule: Q01DX010 (ip), vehicle: saline) 100 % of control; (dose: 100.0 mg/kg/injection, schedule: Q01DX010 (ip), vehicle: saline) 100 % of control.

For `CN=C(c1ccccc1)C1(O)CC2CCC1C2` (configuration not stated), the T/C is 100 % of control under setting [7]; 104 % of control under setting [8]; 100 % of control (dose: 400.0 mg/kg/injection, schedule: Q01DX001 (ip), vehicle: saline with Tween-80).

As to `O=C(O)CCCCCNC(=O)OCc1ccccc1`, the T/C (dose: 100.0 mg/kg/injection, schedule: Q01DX009 (ip), vehicle: gum acacia) is 112 % of control; the T/C (dose: 100.0 mg/kg/injection, schedule: Q04DX003 (ip), vehicle: gum acacia) is 100 % of control; the T/C (dose: 200.0 mg/kg/injection, schedule: Q01DX009 (ip), vehicle: gum acacia) was 104 % of control; the T/C (dose: 200.0 mg/kg/injection, schedule: Q04DX003 (ip), vehicle: gum acacia) is 100 % of control; the T/C (dose: 400.0 mg/kg/injection, schedule: Q01DX009 (ip), vehicle: gum acacia) was 108 % of control; the T/C (dose: 400.0 mg/kg/injection, schedule: Q04DX003 (ip), vehicle: gum acacia) was 116 % of control.
